The nature of data set [1]: Lipophilicity assay (octanol/buffer). It counts as physicochemical. Conditions: for logD: n-octanol / 10 mM sodium phosphate buffer pH 7.4, LC-UV; for Lipophilicity class from Log D: pH 7.4. Here is the method: 1.56 g NaH2PO4·2H2O was dissolved in 0.5 L water in a 1 L beaker. After adjusting pH to 7.4 using NaOH solution, the volume was made up to 1 L. Equal volumes of sodium phosphate buffer (10 mM, pH 7.4) and n-octanol were added to a separation funnel and mixed thoroughly by shaking and inverting the funnel several times. The two layers were allowed to separate for overnight and then dispensed in two separate glass bottles. 10 mM stock solution was prepared in 100% DMSO and stored at 4° C. 495 μL of organic phase (1-octanol) was added to each well of a 2 mL deep well plate, followed by 495 μL of buffer and 10 μL of test compound was added. The plate was incubated for 3 hr at room temperature on a plate shaker at 500 rpm. After incubation, the samples were allowed to equilibrate for 20 min and then centrifuged at 4000 rpm for 30 min for complete phase separation and analysed by LC-UV.
Log D=Log (area of octanol/area of buffer)

The test system of another data set is HepG2 cells. The data set is described as follows: Basal oxygen consumption rate (OCR) by Seahorse. It counts as cell-based. Particulars: 5 μM, 24 hours. How it is done:
HepG2 cells were plated in Seahorse cell culture microplates (24 well). Cells were treated with 5 μM of compounds 9, 107, 238 and 238a for 24 hours. The calibrator plate was dipped in the calibrator solution and incubated overnight at 37° C. in a non-CO2 incubator. The next day, cells were washed with Agilent Seahorse XF Base Medium, Minimal DMEM twice, making sure to leave at least 50 μl of media in the wells and incubated for 1 hour at 37° C. in a non-CO2 incubator. Following this, oxygen consumption rate was measured in the Seahorse instrument. FIG. 12 illustrates basal oxygen consumption rate of compounds 9, 107, 238a, and 238.

In the next data set the target is COP1 (Homo sapiens, UniProt Q8NHY2). In words: In vitro ubiquitination of purified ATGL by COP1 with UbcH6. It counts as biochemical. Set-up: host or cells: HEK293A. Conditions: 5 μM compound, COP1 overexpressing HEK293A lysate. The text has this: Purification of ATGL protein and obtaining COP1 overexpressing cell lysate: Myc-ATGL plasmid and Myc-DDK-COP1 plasmid ([…] each) were transfected separately in cultured HEK293A cells with the help of Lipofectamine2000 (Invitrogen). Cells were harvested in Lysis Buffer and protein solution was extracted as described previously. The Lysis Buffer used to harvest COP1 overexpressing cells had 0.1% SDS supplemented in it. The concentration of protein was estimated using Bradford assay. For source of E3 ligase, the total cell lysate from COP1 overexpressing HEK293A cells were used.
Sequence of COP1 (Q8NHY2 whole entry): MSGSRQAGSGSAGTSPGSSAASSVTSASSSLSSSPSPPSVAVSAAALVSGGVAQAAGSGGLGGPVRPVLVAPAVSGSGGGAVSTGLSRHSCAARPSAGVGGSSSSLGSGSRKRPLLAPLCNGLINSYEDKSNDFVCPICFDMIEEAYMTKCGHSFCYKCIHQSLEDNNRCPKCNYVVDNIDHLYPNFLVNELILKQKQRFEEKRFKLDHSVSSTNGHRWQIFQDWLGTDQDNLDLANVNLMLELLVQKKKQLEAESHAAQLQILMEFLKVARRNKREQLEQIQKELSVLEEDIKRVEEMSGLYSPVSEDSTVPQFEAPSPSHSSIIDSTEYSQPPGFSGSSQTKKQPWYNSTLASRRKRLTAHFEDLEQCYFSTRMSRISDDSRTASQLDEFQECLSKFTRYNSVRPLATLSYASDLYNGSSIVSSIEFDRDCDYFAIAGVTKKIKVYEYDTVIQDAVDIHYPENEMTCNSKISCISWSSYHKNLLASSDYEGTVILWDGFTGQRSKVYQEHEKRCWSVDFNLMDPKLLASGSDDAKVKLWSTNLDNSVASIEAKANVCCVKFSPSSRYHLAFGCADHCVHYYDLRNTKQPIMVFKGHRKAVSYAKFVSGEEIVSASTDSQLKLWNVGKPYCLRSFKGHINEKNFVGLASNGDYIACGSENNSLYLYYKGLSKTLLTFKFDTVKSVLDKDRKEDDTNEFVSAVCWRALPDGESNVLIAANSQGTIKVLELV
For purification of Myc-ATGL: 1 ml of Ni^2+-NTA resin (Roche) was taken in a 15 ml centrifuge tube and centrifuged at 2000 RPM for 5 minutes. The upper ethanol layer was discarded and the pellet was washed in 1×PBS twice to remove any remaining traces of ethanol. The pellet was finally washed once with Lysis Buffer for equilibration. […] The tube was incubated overnight at 4° C. in a rotary shaker.
The next day, the solution was centrifuged at 2000 RPM for 10 minutes and the supernatant collected. Lysis Buffer (containing protease inhibitor cocktail twice the previous concentration) was used for washing the beads twice to remove non-specific and unattached reactants in a stringent condition. The beads were finally washed once with 1×PBS containing the same amount of protease inhibitor for equilibration. 300 μl of 500 mM Imidazole (Sigma Aldrich) solution in 1×PBS was added to the resin for elution of ATGL and centrifuged at 2000 RPM for 30 minutes and the eluted protein was collected. To the separated resin, 300 μl of 1M Imidazole solution was added and centrifuged at 2000 RPM for 30 minutes and the second elute was collected. […] of eluted protein from each elution was boiled with 5 μl of Laemmli's buffer at 95° C. for 10 minutes and run in 10% SDS-PAGE gel. The supernatant collected before elution of ATGL and the proteins still attached to the Ni^2+-NTA resin were also run in the SDS-PAGE. The resolved proteins were subsequently transferred on PVDF membranes and probed with anti-myc primary antibody to check the presence of purified ATGL in the elute. Also to check the yield of the purified protein, 40 μl of the elute was run in 10% SDS page and stained with Coomassie Brilliant Blue solution followed by destaining with methanol, glacial acetic acid and water in a 50:40:10 ratio.
For identifying the E2 ubiquitin-conjugating enzyme responsible for ATGL ubiquitination by COP1, an in vitro ubiquitinylation kit (Enzo Life Sciences) was used. The assay was reconstituted as per manufacturer's protocol with the panel of E2 conjugating enzymes provided and other required components at the mentioned concentrations. The reaction was carried out for 6 hours following which it was quenched as per directions with the provided 2× non-reducing gel buffer and then analysed by western blotting.
Having identified the E2 ubiquitin conjugating enzyme as UbcH6, ubiquitination assay was set up in vitro as described previously with 5 μM of the compound 9, 107, 171, 179 and 73 followed by quenching and analysis by western blotting.
Ubiquitination of a target protein is carried out in a three step process involving three different enzymes: E1 ubiquitin activating enzyme, E2 ubiquitin conjugating enzyme and E3 ubiquitin ligase. In humans, there is only one E1 ubiquitin activating enzyme and multiple E2 and E3 enzymes. […]

For the next data set, the system named is ATGL. The data set is described as follows: qPCR of ATGL mRNA in HepG2 cells. Particulars: 5 μM and 10 μM, 24 hours. The format is cell-based. How it is done:
Ubiquitination of ATGL by COP1 is a post translational event, therefore, it is expected that the mRNA level of ATGL will not change compared to control upon treatment with the compound of the present disclosure which inhibit COP1. To establish this, HepG2 cells were treated with 5 μM and 10 μM of the compounds 9, 107, 171, 179 and 73 for 24 hours. RNA was isolated using TRIzol reagent followed by chloroform treatment and precipitation with isopropanol. cDNA was obtained from the isolated RNA and qPCR was carried out using SyBr green reagent. COP1 and ATGL gene expression levels were checked. 18s was used as control. FIG. 8 illustrates that compounds exert no effect on the mRNA levels of ATGL.

Entries after “also recorded” stand apart in the source; their conditions may differ.

Take `COCCn1c(-c2ccncc2)nc2ccc(NC(=O)Nc3cccc(C(C)=O)c3)cc2c1=O` [Compound 219, 1-(3-acetylphenyl)-3-(3-(2-methoxyethyl)-4-oxo-2-(pyridin-4-yl)-3,4-dihydroquinazolin-6-yl)urea]: in data set [1], the logD – broadly, the decadic logarithm of the distribution of all forms, ionised or not, between an organic phase and buffer at a given pH – is 0.19; the “Lipophilicity class from Log D” value is reported as “hydrophilic”.

For `COCCn1cnc2ccc(NC(=O)Nc3cccc(C(C)=O)c3)cc2c1=O` [Compound 9, 1-(3-acetylphenyl)-3-(3-(2-methoxyethyl)-4-oxo-3,4-dihydroquinazolin-6-yl)urea], in the data set on HepG2 cells, the “Basal oxygen consumption rate” value was “higher oxygen consumption rate compared to control; also recorded: increase in the basal OCR values”. The “ATGL ubiquitination by COP1 in vitro” value on COP1 was “effective in reducing the ubiquitination of ATGL by COP1; also recorded: significant efficacy in curbing ATGL ubiquitination by COP1”. Moreover, in the data set with ATGL, the “ATGL mRNA level” value is “no significant changes”.

On to `COCCn1c(-c2cccnc2)nc2ccc(NC(=O)Nc3cccc(C(C)=O)c3)cc2c1=O` [Compound 215, 1-(3-acetylphenyl)-3-(3-(2-methoxyethyl)-4-oxo-2-(pyridin-3-yl)-3,4-dihydroquinazolin-6-yl)urea], for which, in data set [1], the pH-dependent lipophilicity (logD) amounted to 0.42 and the “Lipophilicity class from Log D” value is “hydrophilic”.

As for `COCC(C)n1cnc2ccc(NC(=O)Nc3cccc(C(C)=O)c3)cc2c1=O` (stereo not shown) [Compound 179, 1-(3-acetylphenyl)-3-(3-(1-methoxypropan-2-yl)-4-oxo-3,4-dihydroquinazolin-6-yl)urea], the “ATGL ubiquitination by COP1 in vitro” value at COP1 is reported as “effective in reducing the ubiquitination of ATGL by COP1; also recorded: significant efficacy in curbing ATGL ubiquitination by COP1”. Besides, in data set [1], the logD was found to be 1.69 and the “Lipophilicity class from Log D” value is “ideal lipophilicity”. In the data set with ATGL, the “ATGL mRNA level” value was “no significant changes”.

Consider `CC(=O)c1cccc(NC(=O)Nc2ccc3ncn(CCCN4CCOCC4)c(=O)c3c2)c1` [Compound 139, 1-(3-acetylphenyl)-3-(3-(3-morpholinopropyl)-4-oxo-3,4-dihydroquinazolin-6-yl)urea], for which, in data set [1], the logD is -0.5 and the “Lipophilicity class from Log D” value is reported as “hydrophilic”.

With `COCCn1c(CN2CCCCC2)nc2ccc(NC(=O)Nc3cccc(C(C)=O)c3)cc2c1=O` [Compound 238, 1-(3-acetylphenyl)-3-(3-(2-methoxyethyl)-4-oxo-2-(piperidin-1-ylmethyl)-3,4-dihydroquinazolin-6-yl)urea], the “Basal oxygen consumption rate” value with HepG2 cells is on record as “higher oxygen consumption rate compared to control; also recorded: increase in the basal OCR values”. Further, in data set [1], the log distribution coefficient (logD) was determined as 1.6 and the “Lipophilicity class from Log D” value was “ideal lipophilicity”.

Turning to `COCCn1c(C)nc2ccc(NC(=O)Nc3cccc(C(C)=O)c3)cc2c1=O` [Compound 107, 1-(3-acetylphenyl)-3-(3-(2-methoxyethyl)-2-methyl-4-oxo-3,4-dihydroquinazolin-6-yl)urea], in the data set with HepG2 cells, the “Basal oxygen consumption rate” value is on record as “higher oxygen consumption rate compared to control; also recorded: increase in the basal OCR values”. Besides, the “ATGL ubiquitination by COP1 in vitro” value at COP1 was “effective in reducing the ubiquitination of ATGL by COP1; also recorded: significant efficacy in curbing ATGL ubiquitination by COP1”. In the data set on ATGL, the “ATGL mRNA level” value was “no significant changes”.

These data come from patent US12528777B2, “Quinazolinones derivatives for treatment of non-alcoholic fatty liver disease, preparation and use thereof” (Council of Scientific and Industrial Research, priority 2020, dated 2026).
